# Laboratory results as given in patent US20230011869A1 (Hoffmann-La Roche Inc., priority 2018, published 2023).
# Counter-ions that a name gives are not always drawn. Like-named read-outs stand apart in the source and are kept apart here.
# System: Acinetobacter baumannii ATCC17961
# Experiment: Antimicrobial susceptibility testing: 90% growth inhibitory concentration (IC90) determination, Iso-Sensitest broth
# Assay type: cell-based
# Conditions: Acinetobacter baumannii, ATCC17961, 16 h, read-out: ATCC17961 IC90
# Method in brief: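 Twofold serial dilutions (e.g. 50 to 0.097 μM final) in Iso-Sensitest broth, inoculum 5×10^(5) CFU/ml, incubated at 35±2° C. OD600 read every 20 minutes over 16 h; IC90 derived from growth inhibition during logarithmic phase.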
# [1] = 90% growth inhibitory concentration, Acinetobacter baumannii ATCC17961, Iso-Sensitest broth, OD 600 nm over 16 h
SMILES,IC90 [1],IC90
"CCc1cc(Nc2nccn3c(-c4ccc(OC(F)F)c(F)c4F)cnc23)ccc1C(=O)N1CCC(C(=O)N2C[C@@H]3C[C@H]2CN3)CC1 [Example 592, (4-((1S,4S)-2,5-diazabicyclo[2.2.1]heptane-2-carbonyl)piperidin-1-yl)(4-((3-(4-(difluoromethoxy)-2,3-difluorophenyl)imidazo[1,2-a]pyrazin-8-yl)amino)-2-ethylphenyl)methanone 2,2,2-trifluoroacetate formate]",–,38 nM
"COc1ccc(-c2cnc3c(Nc4ccc(C(=O)N5CCN(C(=O)[C@@H]6C[C@@H](O)CN6)CC5)c(C)c4)nccn23)c(F)c1Cl [Example 93, (4-(4-((3-(3-chloro-2-fluoro-4-methoxyphenyl)imidazo[1,2-a]pyrazin-8-yl)amino)-2-methylbenzoyl)piperazin-1-yl)((2S,4R)-4-hydroxypyrrolidin-2-yl)methanone hydrochloride]",84 nM,–
"COc1ccc(-c2cnc3c(Nc4ccc(C(=O)N5CCN(C(=O)[C@@H]6C[C@@H](F)CN6)CC5)c(C)c4)nccn23)c(F)c1F [Example 81, (4-(4-((3-(2,3-difluoro-4-methoxyphenyl)imidazo[1,2-a]pyrazin-8-yl)amino)-2-methylbenzoyl)piperazin-1-yl)((2S,4R)-4-fluoropyrrolidin-2-yl)methanone hydrochloride]",106 nM,–
"COc1ccc(-c2cnc3c(Nc4ccc(C(=O)N5CCN(C(=O)[C@@H]6C[C@H](C)CN6)CC5)c(C)c4)nccn23)c(F)c1F [Example 282, [4-[[3-(2,3-difluoro-4-methoxyphenyl)imidazo[1,2-a]pyrazin-8-yl]amino]-2-methylphenyl]-[4-[(2S,4S)-4-methylpyrrolidine-2-carbonyl]piperazin-1-yl]methanone; hydrochloride]",–,72 nM

# The next lines start with results.
IC90 [1],SMILES,IC90
35 nM,"Cc1cc(Nc2nccn3c(-c4ccc(OC(F)F)cc4)cnc23)ccc1C(=O)N1CCN(C(=O)N[C@@H]2CNC[C@H]2O)CC1 (racemic) [Example 170, 4-[4-[[3-[4-(difluoromethoxy)phenyl]imidazo[1,2-a]pyrazin-8-yl]amino]-2-methyl-benzoyl]-N-[rac-(3R,4R)-4-hydroxypyrrolidin-3-yl]piperazine-1-carboxamide hydrochloride]",–
35 nM,"Cc1cc(Nc2nccn3c(-c4ccc(OCC#N)c(F)c4Cl)cnc23)ccc1C(=O)N1CCN(C(=O)NCCN)CC1 [Example 159, N-(2-aminoethyl)-4-[4-[[3-[2-chloro-4-(cyanomethoxy)-3-fluoro-phenyl]imidazo[1,2-a]pyrazin-8-yl]amino]-2-methyl-benzoyl]piperazine-1-carboxamide formate]",–
216 nM,"COc1ccc(-c2cnc3c(Nc4ccc(C(=O)N5CCC(C(=O)NCC(O)CN6CCOCC6)CC5)c(C)c4)nccn23)c(F)c1F (stereo not drawn) [Example 572, 1-(4-((3-(2,3-difluoro-4-methoxyphenyl)imidazo[1,2-a]pyrazin-8-yl)amino)-2-methylbenzoyl)-N-(2-hydroxy-3-morpholinopropyl)piperidine-4-carboxamide]",–
34 nM,"Cc1cc(Nc2nccn3c(-c4ccc(OCC#N)c(F)c4Cl)cnc23)ccc1C(=O)N1CCN(C(=O)[C@@H]2CCNC2)CC1 [Example 212, 2-[3-chloro-2-fluoro-4-[8-[3-methyl-4-[4-[(3R)-pyrrolidine-3-carbonyl]piperazine-1-carbonyl]anilino]imidazo[1,2-a]pyrazin-3-yl]phenoxy] acetonitrile formate]",–
81 nM,"COc1ccc(-c2cnc3c(Nc4ccc(C(=O)NC5CCC(NC(=O)[C@H]6C[C@H](O)CN6)C5)c(C)c4)nccn23)c(F)c1F (mixture of isomers) [Example 458, rac-(2R,4S)-N-[3-[[4-[[3-(2,3-difluoro-4-methoxyphenyl)imidazo[1,2-a]pyrazin-8-yl]amino]-2-methylbenzoyl]amino]cyclo-pentyl]-4-hydroxypyrrolidine-2-carboxamide]",–
